# Laboratory results as given in the supplement of paper PMC10307832.
# Experiments:
# Test in all cases: relative viability (nuclei count vs DMSO), 5 days (fraction); higher = more cells survive
# Vismodegib + Foretinib = compound: CS(=O)(=O)c1ccc(C(=O)Nc2ccc(Cl)c(-c3ccccn3)c2)c(Cl)c1 [Vismodegib] + COc1cc2c(Oc3ccc(NC(=O)C4(C(=O)Nc5ccc(F)cc5)CC4)cc3F)ccnc2cc1OCCCN1CCOCC1 [Foretinib] (partner 0.25 µM)
# Procedure, shortened: (§1)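 Each reported value is a median over duplicate plates. It expresses relative viability: treated-well nuclei count divided by vehicle-well nuclei count. Lung cancer cell lines in 1536-well plates were dosed by pin tool a day after seeding, alone with one drug or with a fixed anchor-drug dose plus five library-drug doses (not always all listed) in √10 steps, and nuclei were counted after 5 days.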
# Vismodegib + Decitabine = compound: CS(=O)(=O)c1ccc(C(=O)Nc2ccc(Cl)c(-c3ccccn3)c2)c(Cl)c1 [Vismodegib] + Nc1ncn([C@H]2C[C@H](O)[C@@H](CO)O2)c(=O)n1 [Decitabine] (partner 2 µM)
# Procedure, shortened: as §1
# VE-821 + Linsitinib = compound: CS(=O)(=O)c1ccc(-c2cnc(N)c(C(=O)Nc3ccccc3)n2)cc1 [VE-821] + C[C@]1(O)C[C@@H](c2nc(-c3ccc4ccc(-c5ccccc5)nc4c3)c3c(N)nccn32)C1 [Linsitinib] (partner 1 µM)
# Procedure, shortened: as §1
# Ruxolitinib + Alpelisib = compound: N#CC[C@H](C1CCCC1)n1cc(-c2ncnc3[nH]ccc23)cn1 [Ruxolitinib] + Cc1nc(NC(=O)N2CCC[C@H]2C(N)=O)sc1-c1ccnc(C(C)(C)C(F)(F)F)c1 [Alpelisib] (partner 2 µM)
# Procedure, shortened: as §1
Cell Line,relative viability (Vismodegib + Foretinib; first compound 0.08 µM),relative viability (Vismodegib + Foretinib; first compound 0.253 µM),relative viability (Vismodegib + Foretinib; first compound 0.8 µM),relative viability (Vismodegib + Foretinib; first compound 2.53 µM),relative viability (Vismodegib + Foretinib; first compound 8 µM),relative viability (Vismodegib + Decitabine; first compound 0.08 µM),relative viability (Vismodegib + Decitabine; first compound 0.253 µM),relative viability (Vismodegib + Decitabine; first compound 0.8 µM),relative viability (Vismodegib + Decitabine; first compound 2.53 µM),relative viability (Vismodegib + Decitabine; first compound 8 µM),relative viability (VE-821 + Linsitinib; first compound 0.08 µM),relative viability (VE-821 + Linsitinib; first compound 0.253 µM),relative viability (VE-821 + Linsitinib; first compound 0.8 µM),relative viability (VE-821 + Linsitinib; first compound 2.53 µM),relative viability (VE-821 + Linsitinib; first compound 8 µM),relative viability (Ruxolitinib + Alpelisib; first compound 0.08 µM),relative viability (Ruxolitinib + Alpelisib; first compound 0.253 µM),relative viability (Ruxolitinib + Alpelisib; first compound 0.8 µM),relative viability (Ruxolitinib + Alpelisib; first compound 2.53 µM),relative viability (Ruxolitinib + Alpelisib; first compound 8 µM)
ChaGo-K-1,1.03,0.918,0.92,0.838,0.886,0.503,0.508,0.504,0.505,0.561,,,,,,,,,,
HCC-44,,,,,,0.945,0.942,0.93,0.937,1.04,0.72,0.685,0.485,0.81,0.769,0.793,0.724,0.796,0.602,0.41
NCI-H441,1.24,1.04,0.931,0.774,1.01,0.23,,0.235,0.211,0.238,0.762,0.666,0.651,0.821,0.42,0.665,0.52,0.71,0.553,0.565
NCI-H1299,1.06,1.11,1.13,1.07,1.09,,,,,,0.946,0.886,0.928,1.06,0.959,1.05,1.08,1.05,0.949,0.996
LU99A,0.866,0.775,0.751,0.725,0.79,0.944,0.844,0.887,0.835,0.781,0.496,0.535,0.545,0.53,0.278,0.532,0.456,0.523,0.523,0.412
NCI-H520,0.839,0.678,0.697,0.709,0.682,0.491,0.445,0.572,0.459,0.499,1.09,0.931,,1.03,0.755,,0.837,1.04,0.988,0.756
NCI-H2342,0.984,1.04,1.06,0.949,0.947,0.752,0.637,0.709,0.804,0.89,,,,,,,,,,
SW 900,0.743,0.622,0.761,0.655,0.857,0.404,0.417,0.429,,0.481,,,,,,,,,,
NCI-H1650,1.08,0.938,1.13,1.07,1.21,0.411,0.388,0.426,0.447,0.512,,,,,,,,,,
NCI-H1703,0.383,0.344,0.379,0.336,0.316,,,,,,1.42,0.51,0.649,0.93,0.629,0.316,0.343,0.382,0.19,0.283
NCI-H1648,,,,,,0.499,0.472,0.482,0.459,0.527,,,,,,,,,,
NCI-H1563,0.895,1.02,0.922,0.936,1.02,,,,,,1.26,1.17,0.914,1.08,1.05,0.923,0.813,1,0.895,0.818
NCI-H2170,0.996,1,1.04,1.02,1.08,0.489,0.477,0.455,0.463,0.467,,,,,,0.891,0.857,0.753,0.821,0.737
NCI-H1623,0.805,0.927,0.914,0.822,0.864,,,,,,,,,,,,,,,
CAL-12T,1.08,1.06,1.05,1.06,1.16,,,,,,0.94,0.805,0.725,0.891,0.956,1.26,1.31,1.25,1.05,0.78
NCI-H2228,0.866,1.02,0.871,0.769,1.01,,,,,,0.955,0.866,0.635,0.758,0.395,0.667,0.56,0.773,0.46,0.361
IA-LM,1.2,1.15,1.28,1.04,1.2,,,,,,0.836,0.54,0.741,0.903,0.636,0.676,0.849,0.959,0.584,0.679
NCI-H522,,,,,,0.634,0.64,0.637,0.686,0.621,,,,,,,,,,
EBC-1,0.102,0.102,0.0802,0.097,0.105,,,,,,0.908,0.901,0.85,1.16,0.808,0.833,0.889,0.997,0.876,0.777
Calu-6,0.761,0.837,0.863,0.852,0.9,,,,,,1,0.839,0.83,1.13,0.942,1.02,1.03,1.09,0.851,0.673
NCI-H1792,,,,,,0.513,0.478,0.532,0.481,0.521,0.55,0.711,0.438,0.553,0.421,0.652,0.687,0.651,0.515,0.714
